Read-outs that look alike come from different tables or passages of the source.
Legend:
[1] = human, in vivo
[2] = system: pediatric subjects 2 to <17 years
[3] = Dose Level 1, LD 0.25/CD 0.2 μg/kg/hr, full evaluable population
[4] = Dose Level 2, LD 0.50/CD 0.4 μg/kg/hr, full evaluable population
[5] = Dose Level 3, LD 1.00/CD 0.7 μg/kg/hr, full evaluable population
[6] = Dose Level 4, LD 1.00/CD 2.00 μg/kg/hr, full evaluable population
[7] = Table 30 key summary (mean), Dose Level 1, LD 0.25/CD 0.2 μg/kg/hr, full evaluable population
[8] = Table 30 key summary (mean), Dose Level 2, LD 0.50/CD 0.4 μg/kg/hr, full evaluable population
[9] = Table 30 key summary (mean), Dose Level 3, LD 1.00/CD 0.7 μg/kg/hr, full evaluable population
[10] = Table 30 key summary (mean), Dose Level 4, LD 1.00/CD 2.00 μg/kg/hr, full evaluable population
[11] = Group I, Dose Level 1, LD 0.25/CD 0.2 μg/kg/hr, N = 8, safety population
[12] = Group I, Dose Level 2, LD 0.50/CD 0.4 μg/kg/hr, N = 6, safety population
[13] = Group I, Dose Level 3, LD 1.00/CD 0.7 μg/kg/hr, N = 6, safety population
[14] = Group I, Dose Level 4, LD 1.00/CD 2.00 μg/kg/hr, N = 6, safety population
[15] = Group II, Dose Level 1, LD 0.25/CD 0.2 μg/kg/hr, N = 8, safety population
[16] = Group II, Dose Level 2, LD 0.50/CD 0.4 μg/kg/hr, N = 8, safety population
[17] = Group II, Dose Level 3, LD 1.00/CD 0.7 μg/kg/hr, N = 9, safety population
[18] = Group II, Dose Level 4, LD 1.00/CD 2.00 μg/kg/hr, N = 8, safety population

In the case of Cc1cccc([C@H](C)c2cnc[nH]2)c1C [dexmedetomidine], the “AUC (0-Infinity)Dose” value [1] is reported as 2102.55 (n = 2) (pg/mL)hr/μg, the “AUC (0-Last)” value [1] is reported as 813.26 (pg/mL)hr and the Vdw [1] is reported as 3.47 (n = 2) L/kg. The “dose-adjusted AUC (0-Infinity), additional cohort versus age group II” value [1] was 4.6 times higher, the t1/2 [1] was 8 h and the “Css Mean” value [3] was 402.026 µg/mL. For the same compound, the “Css Median” value [3] was 197.991 µg/mL, the “λz Mean” value [3] was 0.469 h⁻¹ and the “λz Median” value [3] was 0.446 h⁻¹. The “Css Mean” value [4] was 539.848 µg/mL, the “Css Median” value [4] was 513.902 µg/mL and the “λz Mean” value [4] was 0.408 h⁻¹. For the same compound, the “λz Median” value [4] was 0.411 h⁻¹, the “Css Mean” value [5] was 1347.284 µg/mL and the “Css Median” value [5] was 947.907 µg/mL. The “λz Mean” value [5] was 0.369 h⁻¹, the “λz Median” value [5] was 0.386 h⁻¹ and the “Css Mean” value [6] was 2827.144 µg/mL. The “Css Median” value [6] was 2665.409 µg/mL, the “λz Mean” value [6] was 0.360 h⁻¹ and the “λz Median” value [6] was 0.326 h⁻¹. It also gave a Css [7] of 0.402 ng/mL, a λz [7] of 0.5 h⁻¹ and a Css [8] of 0.5398 ng/mL. It also gave a λz [8] of 0.4 h⁻¹, a Css [9] of 1.3473 ng/mL and a λz [9] of 0.4 h⁻¹. It also gave a Css [10] of 2.8271 ng/mL, a λz [10] of 0.4 h⁻¹ and a Css (human, in vivo) of 5.74355e+09 ng/mL. The “dose proportionality of AUC and Cmax” value (human, in vivo) was “dose proportionality and a linear relationship”, the “Drug-related TEAE: Bradycardia” value [2, 11] was 0 n (%) and the “Drug-related TEAE: Hypertension” value [2, 11] was 0 n (%). The “Drug-related TEAE: Hypotension” value [2, 11] was 0 n (%), the “Drug-related TEAE: Sedation” value [2, 11] was 0 n (%) and the “Number of Drug-related TEAE” value [2, 11] was 0. The “Subjects with at least 1 Drug-Related TEAE” value (shortened to “Subjects”) [2, 11] was 0 n (%), the “Drug-related TEAE: Bradycardia” value [2, 12] was 0 n (%) and the “Drug-related TEAE: Hypertension” value [2, 12] was 0 n (%). For the same compound, the “Drug-related TEAE: Hypotension” value [2, 12] was 0 n (%), the “Drug-related TEAE: Sedation” value [2, 12] was 0 n (%) and the “Number of Drug-related TEAE” value [2, 12] was 0. For the same compound, the “Subjects” value [2, 12] was 0 n (%), the “Drug-related TEAE: Bradycardia” value [2, 13] was 1 (16.7) n (%) and the “Drug-related TEAE: Hypertension” value [2, 13] was 1 (16.7) n (%). For the same compound, the “Drug-related TEAE: Hypotension” value [2, 13] was 0 n (%), the “Drug-related TEAE: Sedation” value [2, 13] was 0 n (%) and the “Number of Drug-related TEAE” value [2, 13] was 2. The “Subjects” value [2, 13] was 1 (16.7) n (%), the “Drug-related TEAE: Bradycardia” value [2, 14] was 1 (16.7) n (%) and the “Drug-related TEAE: Hypertension” value [2, 14] was 0 n (%). The “Drug-related TEAE: Hypotension” value [2, 14] was 1 (16.7) n (%), the “Drug-related TEAE: Sedation” value [2, 14] was 2 (33.3) n (%) and the “Number of Drug-related TEAE” value [2, 14] was 4. The “Subjects” value [2, 14] was 4 (66.7) n (%), the “Drug-related TEAE: Bradycardia” value [2, 15] was 0 n (%) and the “Drug-related TEAE: Chills” value [2, 15] was 0 n (%). For the same compound, the “Drug-related TEAE: Hypertension” value [2, 15] was 0 n (%), the “Drug-related TEAE: Sedation” value [2, 15] was 0 n (%) and the “Number of Drug-related TEAE” value [2, 15] was 0. For the same compound, the “Subjects” value [2, 15] was 0 n (%), the “Drug-related TEAE: Bradycardia” value [2, 16] was 0 n (%) and the “Drug-related TEAE: Chills” value [2, 16] was 0 n (%). The “Drug-related TEAE: Hypertension” value [2, 16] was 0 n (%), the “Drug-related TEAE: Sedation” value [2, 16] was 0 n (%) and the “Number of Drug-related TEAE” value [2, 16] was 0. For the same compound, the “Subjects” value [2, 16] was 0 n (%), the “Drug-related TEAE: Bradycardia” value [2, 17] was 1 (11.1) n (%) and the “Drug-related TEAE: Chills” value [2, 17] was 1 (11.1) n (%). The “Drug-related TEAE: Hypertension” value [2, 17] was 1 (11.1) n (%), the “Drug-related TEAE: Sedation” value [2, 17] was 0 n (%) and the “Number of Drug-related TEAE” value [2, 17] was 3. For the same compound, the “Subjects” value [2, 17] was 2 (22.2) n (%), the “Drug-related TEAE: Bradycardia” value [2, 18] was 0 n (%) and the “Drug-related TEAE: Chills” value [2, 18] was 0 n (%). For the same compound, the “Drug-related TEAE: Hypertension” value [2, 18] was 3 (37.5) n (%), the “Drug-related TEAE: Sedation” value [2, 18] was 1 (12.5) n (%) and the “Number of Drug-related TEAE” value [2, 18] was 4. The “Subjects” value [2, 18] was 4 (50.0) n (%), the “treatment-related TEAE: chills” value ([2]; human, in vivo) was 1 subjects and the “treatment-related TEAE: hypotension” value ([2]; human, in vivo) was 1 subjects. The deaths ([2]; safety population) was “No deaths”.

From patent publication US20130096170A1 (priority 2011, published 2013)
